Each block holds one compound with its values, some of them ahead of it.
Assays:
[1] = Comparative analysis of the spectral properties of fluorophores; type: physicochemical; settings: for λem(max) / λex / λem(50% max): PBS containing 0.5% DMSO at 21° C; for λem(50% max): bathochromic wavelength at 50% of maximum
Source text: A comparative analysis of the spectral properties of certain fluorophores is shown Table 1. […] This phenomenon is unexpected given the chemical similarity between anthracene and an acridine. As shown in the Table 1, the acridine orange fluorophore emits at even longer wavelengths.

[2] = Glucose transduction of monotopic acridine-based boronate biosensor molecules by fluorescence spectroscopy; settings: for wavelength of maximum intensity (Imax): PBS with DMSO
Experimental: Glucose transduction of particular acridine-based boronate bio sensor molecules was observed using fluorescence spectroscopy. Fluorescence measurements were taken on a Yorbin Fluorolog instrument. […]
Aliquots of glucose were added and responses were measured at 436 nm, or maximum intensity. (See Table 3).
Another transduction experiment was performed with ACRAB at 500 nm, or approximately 25% of the value of maximum intensity. The data taken at 500 nm generally parallel those taken at 436 nm, thus indicating no decrease in performance of the acridine-based boronate biosensor molecule at the longer wavelength. This shift of 83 nm is very significant in that it provides about a 10-fold increase of transmission of light through tissue and skin.
MEACRAB was then diluted 100-fold to 100 nM and transduction at conditions of ambient temperature. The solution contained 0.5% DMSO.

[3] = Emission spectra in presence and absence of glucose (FIG. 14A/14B transduction experiment)
Source text: FIG. 14A depicts the results of a transduction experiment with anthracene boronate.
FIG. 14B depicts the results of a transduction experiment with methylacridine boronate (MEACRAB) in the presence of glucose.
A comparison of anthracene boronate and methylacridine boronate (MEACRAB) in the presence and absence of glucose further highlights the unexpected differences between these two fluorescent molecules in terms of their respective fluorescent properties, such as transduction of glucose at longer wavelengths, i.e., glucose sensing capacity as indicated by a change in fluorescence in the presence of glucose at longer wavelengths. These differences are illustrated in FIG. 14A and FIG. 14B, which depicts the emission spectra of anthracene boronate and methylacridine boronate, respectively in the presence and absence of glucose. From inspection of FIG. 14A, it can be observed that at about 440 nm, which is about at a peak of next to maximum intensity, anthracene boronate yields about 25% transduction in the presence of glucose. […] For instance, at about 500 nm, methylacridine boronate yields about 25% transduction in the presence of glucose. Thus, the ability of an acridine boronate, such as methylacridine boronate, to transduce in the presence of glucose at longer wavelengths, as compared with anthracene boronate, is unexpected. […]

λem(max) [1]: 428 nm | λex [1]: 360 nm | λem(50% max) [1]: 480 nm | emission intensity at about 480 nm relative to intensity of maximum emission wavelength [1]: approximately 50%
Compound: c1ccc2nc3ccccc3cc2c1 [Acridine]

emission profile detectable out to [1]: 575–600 nm | maximum emission [1]: 525 nm | λem(max) [1]: 526 nm | λex [1]: 493 nm | λem(50% max) [1]: 567 nm
Compound: CN(C)c1ccc2cc3ccc(N(C)C)cc3nc2c1 [Acridine Orange, 3,6-bis(dimethylamino)acridine]

λem(max) [1]: 417 nm | λex [1]: 370 nm | λem(50% max) [1]: 428 nm | emission intensity at about 480 nm relative to intensity of maximum emission wavelength [1]: no detectable emission
Compound: c1ccc2cc3ccccc3cc2c1 [Anthracene]

intensity at 500 nm relative to the value of maximum intensity ([2]; 500 nm): 25% | wavelength of maximum intensity (Imax) [2]: 438 nm
Compound: Cc1ccc2nc3ccccc3c(CN(CCCCCO)Cc3ccccc3B(O)O)c2c1 [MEACRAB, aminomethylhydroxypentyl-methylacridine boronate]
Transduction ([2]; 100 nM, 0.5% DMSO, ambient temperature, 509 nm, glucose 87 mg/dL): 21% | Transduction ([2]; 100 nM, 0.5% DMSO, ambient temperature, 509 nm, glucose 173 mg/dL): 29% | Transduction ([2]; 100 nM, 0.5% DMSO, ambient temperature, 509 nm, glucose 256 mg/dL): 53% | Transduction ([2]; 100 nM, 0.5% DMSO, ambient temperature, 509 nm, glucose 341 mg/dL): 77% | Transduction ([2]; 100 nM, 0.5% DMSO, ambient temperature, 509 nm, glucose 425 mg/dL): 94% | Transduction ([2]; 100 nM, 0.5% DMSO, ambient temperature, 509 nm, glucose 510 mg/dL): 109% | Transduction ([2]; 100 nM, 0.5% DMSO, ambient temperature, 509 nm, glucose 603 mg/dL): 118% | Transduction ([2]; 100 nM, 0.5% DMSO, ambient temperature, 509 nm, glucose 683 mg/dL): 121% | Transduction ([2]; 100 nM, 0.5% DMSO, ambient temperature, 509 nm, glucose 767 mg/dL): 126% | Transduction ([2]; 100 nM, 0.5% DMSO, ambient temperature, 509 nm, glucose 834 mg/dL): 134% | Transduction ([2]; 100 nM, 0.5% DMSO, ambient temperature, 509 nm, glucose 927 mg/dL): 142% | Transduction ([2]; 100 nM, 0.5% DMSO, ambient temperature, 509 nm, glucose 1012 mg/dL): 158% | Transduction ([2]; 10 μM in PBS, 4% DMSO, 500 nm, glucose 93 mg/dL): 30% | Transduction ([2]; 10 μM in PBS, 4% DMSO, 500 nm, glucose 184 mg/dL): 60% | Transduction ([2]; 10 μM in PBS, 4% DMSO, 500 nm, glucose 275 mg/dL): 100% | Transduction ([2]; 10 μM in PBS, 4% DMSO, 500 nm, glucose 364 mg/dL): 120% | Transduction ([2]; 10 μM in PBS, 4% DMSO, 500 nm, glucose 459 mg/dL): 170% | Transduction ([2]; 10 μM in PBS, 4% DMSO, 500 nm, glucose 547 mg/dL): 190% | Transduction ([2]; 10 μM in PBS, 4% DMSO, 500 nm, glucose 650 mg/dL): 220% | performance at 100 nM compared with ACRAB, or MEACRAB itself, at 10 μM ([2]; emission wavelength of 500 nm, 0.5% DMSO): performed better | transduction in the presence of glucose ([3]; at about 440 nm): about 50% | transduction in the presence of glucose ([3]; at about 500 nm): about 25%

intensity at 500 nm relative to the value of maximum intensity ([2]; 500 nm): approximately 25% | wavelength of maximum intensity (Imax) [2]: 436 nm
Compound: aminomethylhydroxypentyl-acridine boronate [ACRAB]
Transduction ([2]; 500 nm, glucose 49 mg/dL): 11% | Transduction ([2]; 500 nm, glucose 149 mg/dL): 24% | Transduction ([2]; 500 nm, glucose 198 mg/dL): 37% | Transduction ([2]; 500 nm, glucose 284 mg/dL): 47% | Transduction ([2]; 500 nm, glucose 374 mg/dL): 56% | Transduction ([2]; 500 nm, glucose 441 mg/dL): 62% | Transduction ([2]; 500 nm, glucose 559 mg/dL): 67% | Transduction ([2]; approx 10 μM, PBS pH 7.4, 0.5% DMSO, 436 nm, glucose 50 mg/dL): 15% | Transduction ([2]; approx 10 μM, PBS pH 7.4, 0.5% DMSO, 436 nm, glucose 150 mg/dL): 27% | Transduction ([2]; approx 10 μM, PBS pH 7.4, 0.5% DMSO, 436 nm, glucose 200 mg/dL): 41% | Transduction ([2]; approx 10 μM, PBS pH 7.4, 0.5% DMSO, 436 nm, glucose 300 mg/dL): 48%

— patent US7045361B2, “Analyte sensing via acridine-based boronate biosensors” (Medtronic MiniMed, Inc., priority 2001, dated 2006)
